Source: ChEMBL document CHEMBL5356958, “Discovery of a Highly Potent and Selective MYOF Inhibitor with Improved Water Solubility for the Treatment of Gastric Cancer” (J Med Chem, 2023)
Converted amounts (≈) assume the structure as drawn.

Columns and labels:
[1] = Aqueous solubility of compound in PBS at pH 7.4; type: physicochemical
MKN-45 [2] = experiment: Antiproliferative activity against human MKN-45 cells incubated for 48 hrs by SRB assay; type: functional, cell-based; settings: MKN-45, 48 h
[3] = Aqueous solubility of compound in PBS at pH 2; type: physicochemical
MGC-803 = experiment: Antiproliferative activity against human MGC-803 cells incubated for 48 hrs by SRB assay; type: functional, cell-based; settings: MGC-803, 48 h
[4] = Aqueous solubility of compound in PBS at pH 9; type: physicochemical
MKN-45 [5] = experiment: Antitumor activity against human MKN-45 cells xenografted in BALB/c mouse assessed as tumor growth inhibition at 15 mg/kg/day, ip measured every 3 days for 21 days; type: functional; settings: MKN-45, 504 h, time 21 day, read-out: TGI
hERG (KCNH2) = hERG (KCNH2) (Homo sapiens, UniProt Q12809); experiment: Inhibition of human ERG at 3 uM relative to control; type: toxicity
hERG (KCNH2), sequence (Q12809 whole entry): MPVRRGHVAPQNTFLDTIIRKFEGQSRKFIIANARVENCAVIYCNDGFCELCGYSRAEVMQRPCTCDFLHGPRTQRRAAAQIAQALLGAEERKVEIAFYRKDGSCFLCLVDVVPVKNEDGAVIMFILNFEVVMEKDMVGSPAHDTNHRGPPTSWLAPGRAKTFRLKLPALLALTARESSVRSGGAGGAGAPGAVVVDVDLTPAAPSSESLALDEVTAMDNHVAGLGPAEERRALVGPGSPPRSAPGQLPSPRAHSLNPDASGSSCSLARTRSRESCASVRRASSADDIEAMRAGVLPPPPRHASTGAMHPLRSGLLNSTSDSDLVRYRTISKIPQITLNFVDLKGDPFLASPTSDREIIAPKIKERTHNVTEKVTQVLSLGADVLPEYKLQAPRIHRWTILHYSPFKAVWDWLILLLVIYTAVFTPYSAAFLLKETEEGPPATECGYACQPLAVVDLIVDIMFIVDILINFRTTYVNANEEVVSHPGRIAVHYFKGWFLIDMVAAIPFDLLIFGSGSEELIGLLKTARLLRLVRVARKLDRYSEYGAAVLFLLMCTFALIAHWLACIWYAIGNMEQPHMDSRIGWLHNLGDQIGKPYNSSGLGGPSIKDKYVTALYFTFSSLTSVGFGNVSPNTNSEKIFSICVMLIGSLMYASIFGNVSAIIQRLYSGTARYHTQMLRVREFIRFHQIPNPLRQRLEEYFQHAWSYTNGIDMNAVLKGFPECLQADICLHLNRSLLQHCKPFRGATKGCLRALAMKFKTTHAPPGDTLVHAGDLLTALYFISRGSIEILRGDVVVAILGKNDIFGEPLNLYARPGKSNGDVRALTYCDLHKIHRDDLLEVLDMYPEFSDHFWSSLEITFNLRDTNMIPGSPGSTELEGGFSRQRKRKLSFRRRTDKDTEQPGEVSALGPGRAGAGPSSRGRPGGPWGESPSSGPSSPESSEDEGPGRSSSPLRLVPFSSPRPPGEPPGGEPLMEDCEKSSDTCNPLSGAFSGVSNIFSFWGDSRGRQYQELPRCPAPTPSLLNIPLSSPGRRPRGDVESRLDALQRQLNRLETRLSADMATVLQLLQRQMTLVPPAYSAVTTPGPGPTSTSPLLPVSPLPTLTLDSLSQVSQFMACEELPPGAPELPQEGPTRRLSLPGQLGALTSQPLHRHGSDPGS

MKN-45 [6] = experiment: Antitumor activity against human MKN-45 cells xenografted in BALB/c mouse assessed as tumor growth inhibition at 30 mg/kg/day, ip measured every 3 days for 21 days; type: functional; settings: MKN-45, 504 h, time 21 day, read-out: TGI
Myoferlin = Myoferlin (Homo sapiens, UniProt Q9NZM1); experiment: Binding affinity to human MYOF C2D by SPR method
Myoferlin, sequence (Q9NZM1 whole entry): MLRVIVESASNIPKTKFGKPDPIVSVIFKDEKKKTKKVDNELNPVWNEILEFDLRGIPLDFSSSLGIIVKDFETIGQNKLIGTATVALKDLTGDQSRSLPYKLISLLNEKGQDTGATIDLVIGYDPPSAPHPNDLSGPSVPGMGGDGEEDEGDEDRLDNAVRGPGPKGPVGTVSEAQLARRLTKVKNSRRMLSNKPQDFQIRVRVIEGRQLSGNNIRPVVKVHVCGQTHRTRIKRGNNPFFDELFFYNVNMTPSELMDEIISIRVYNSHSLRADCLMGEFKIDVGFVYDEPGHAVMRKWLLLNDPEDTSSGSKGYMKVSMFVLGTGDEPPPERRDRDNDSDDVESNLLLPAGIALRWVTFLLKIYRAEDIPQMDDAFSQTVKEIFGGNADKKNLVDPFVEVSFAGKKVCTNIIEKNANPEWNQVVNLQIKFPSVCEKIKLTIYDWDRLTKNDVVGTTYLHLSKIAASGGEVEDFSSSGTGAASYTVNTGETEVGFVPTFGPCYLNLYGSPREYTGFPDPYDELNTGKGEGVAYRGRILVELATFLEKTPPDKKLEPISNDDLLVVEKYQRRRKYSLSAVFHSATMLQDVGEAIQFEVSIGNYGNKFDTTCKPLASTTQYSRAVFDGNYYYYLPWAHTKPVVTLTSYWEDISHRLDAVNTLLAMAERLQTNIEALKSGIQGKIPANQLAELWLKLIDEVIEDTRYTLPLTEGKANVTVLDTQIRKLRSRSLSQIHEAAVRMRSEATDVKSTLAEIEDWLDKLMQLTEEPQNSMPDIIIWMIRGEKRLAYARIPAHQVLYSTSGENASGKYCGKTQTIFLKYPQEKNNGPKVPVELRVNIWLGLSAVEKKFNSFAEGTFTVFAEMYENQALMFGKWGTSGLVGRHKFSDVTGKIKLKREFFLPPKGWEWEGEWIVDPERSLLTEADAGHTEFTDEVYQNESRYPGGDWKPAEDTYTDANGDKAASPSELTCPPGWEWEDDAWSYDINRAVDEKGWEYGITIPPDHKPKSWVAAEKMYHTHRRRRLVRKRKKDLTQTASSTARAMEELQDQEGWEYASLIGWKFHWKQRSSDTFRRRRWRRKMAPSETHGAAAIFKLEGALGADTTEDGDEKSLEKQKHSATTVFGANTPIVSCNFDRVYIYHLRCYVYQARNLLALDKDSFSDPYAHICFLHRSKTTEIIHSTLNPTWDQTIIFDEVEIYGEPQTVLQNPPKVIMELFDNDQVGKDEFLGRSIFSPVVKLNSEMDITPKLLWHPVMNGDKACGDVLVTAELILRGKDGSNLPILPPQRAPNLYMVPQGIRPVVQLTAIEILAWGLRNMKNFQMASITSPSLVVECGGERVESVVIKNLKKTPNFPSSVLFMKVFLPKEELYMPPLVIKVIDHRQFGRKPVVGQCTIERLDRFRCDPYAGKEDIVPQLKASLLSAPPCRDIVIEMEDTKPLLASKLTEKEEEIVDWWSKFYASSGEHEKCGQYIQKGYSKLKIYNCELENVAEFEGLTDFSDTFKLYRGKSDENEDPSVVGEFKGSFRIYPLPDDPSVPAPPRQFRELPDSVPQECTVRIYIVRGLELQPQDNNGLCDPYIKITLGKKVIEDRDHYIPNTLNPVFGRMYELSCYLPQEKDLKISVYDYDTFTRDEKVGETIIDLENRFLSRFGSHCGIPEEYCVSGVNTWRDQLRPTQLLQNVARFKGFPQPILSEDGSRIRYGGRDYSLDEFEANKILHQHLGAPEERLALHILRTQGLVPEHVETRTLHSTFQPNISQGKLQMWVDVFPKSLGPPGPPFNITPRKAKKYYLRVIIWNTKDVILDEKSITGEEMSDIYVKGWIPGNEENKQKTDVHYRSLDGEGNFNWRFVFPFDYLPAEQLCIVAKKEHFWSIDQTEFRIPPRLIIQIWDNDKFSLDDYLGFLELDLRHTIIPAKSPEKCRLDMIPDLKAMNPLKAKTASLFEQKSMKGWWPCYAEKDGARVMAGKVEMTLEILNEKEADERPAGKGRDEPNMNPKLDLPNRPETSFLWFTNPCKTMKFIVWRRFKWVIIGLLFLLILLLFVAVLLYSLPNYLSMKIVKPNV

Structure (SMILES)	IC50 (MKN-45 [2])	IC50 (MGC-803)	further results
CCc1nc(-c2ccc(OC)cc2)n(-c2cccc(C(=O)NCCCCn3cccn3)c2)n1	540 nM	0.75 µM	solubility [1]: 393 µM (≈ 175 µg/mL); solubility [3]: 1120 µM (≈ 499 µg/mL); solubility [4]: 352 µM (≈ 156 µg/mL)
CCc1nc(-c2ccc(OC)cn2)n(-c2cccc(C(=O)NCCCCn3nccn3)c2)n1	250 nM	1.7 µM	
CCc1nc(-c2ccc(OC)cc2)n(-c2cccc(C(=O)NCCCCn3ncnn3)c2)n1	2860 nM	0.58 µM	solubility [1]: 194 µM (≈ 86.7 µg/mL); solubility [3]: 877 µM (≈ 392 µg/mL); solubility [4]: 186 µM (≈ 83.1 µg/mL)
CCc1nc(-c2ccccc2)n(-c2cccc(C(=O)NCCCCn3nccn3)c2)n1	3120 nM	6.83 µM	
CCc1nc(-c2ccc(OC)cc2)n(-c2cccc(C(=O)NCCCCn3cc(Br)nn3)c2)n1	> 10000 nM	> 10 µM	
CCc1nc(-c2ccc(OC)cc2)n(-c2cccc(C(=O)NCCCCc3cccs3)c2)n1	760 nM	0.52 µM	
O=c1[nH]cc(F)c(=O)[nH]1 [FLUOROURACIL]			inhibition in vivo at 15 mg/kg/day (MKN-45 [5]): 39.2%
CCc1nc(-c2ccc(OC)cc2)n(-c2cccc(C(=O)NCCCCc3ccccn3)c2)n1	> 10000 nM	3.24 µM	
CCc1nc(-c2ccc(C(F)(F)F)cc2)n(-c2cccc(C(=O)NCCCCn3nccn3)c2)n1	2700 nM	3.14 µM	
CCc1nc(-c2ccc(OC)cc2)n(-c2cccc(C(=O)NCCCCCCn3nccn3)c2)n1	9590 nM	> 10 µM	
CCc1nc(-c2ccc(F)cc2)n(-c2cccc(C(=O)NCCCCn3nccn3)c2)n1	300 nM	1.37 µM	
CCc1nc(-c2ccc(OC)cc2)n(-c2cccc(C(=O)NCCCCn3ncc(Br)n3)c2)n1	260 nM	0.27 µM	solubility [1]: < 1.6 µM; solubility [3]: 21.4 µM (≈ 11.2 µg/mL); solubility [4]: < 1.6 µM
CCc1nc(-c2ccc([N+](=O)[O-])cc2)n(-c2cccc(C(=O)NCCCCn3nccn3)c2)n1	880 nM	5.52 µM	
CCc1nc(-c2ncc(OC)cn2)n(-c2cccc(C(=O)NCCCCn3nccn3)c2)n1	500 nM	0.56 µM	
CCc1nc(-c2ccc(OC)cc2)n(-c2cccc(C(=O)NCCCCn3ccnn3)c2)n1	> 10000 nM	> 10 µM	
CCc1nc(-c2cccc(OC)c2)n(-c2cccc(C(=O)NCCCCn3nccn3)c2)n1	9140 nM	7.29 µM	
CCc1ccc(-c2nc(CC)nn2-c2cccc(C(=O)NCCCCn3nccn3)c2)cc1	400 nM	1.01 µM	
CCc1nc(-c2ccc(OC)cc2)n(-c2cccc(C(=O)NCCCCCn3nccn3)c2)n1	6610 nM	2.12 µM	
CCCc1ccc(-c2nc(CC)nn2-c2cccc(C(=O)NCCCCn3nccn3)c2)cc1	1970 nM	4.07 µM	
CCc1nc(-c2ccc(OC)cc2)n(-c2cccc(C(=O)NCCCCn3nc(Br)c(Br)n3)c2)n1	> 10000 nM	9.8 µM	

Structure (SMILES)	IC50 (MKN-45 [2])	IC50 (MGC-803)	further results
CCc1nc(-c2ccc(OC)cc2)n(-c2cccc(C(=O)NCCn3nccn3)c2)n1	> 10000 nM	> 10 µM	
CCc1nc(-c2ccc(OC)nc2)n(-c2cccc(C(=O)NCCCCn3nccn3)c2)n1	2750 nM	7.87 µM	
CCc1nc(-c2ccc(O)cc2)n(-c2cccc(C(=O)NCCCCn3nccn3)c2)n1	490 nM	0.94 µM	
CCc1nc(-c2ccc(OC)cc2)n(-c2cccc(C(=O)NCCCCn3cncn3)c2)n1	> 10000 nM	> 10 µM	
CCc1nc(-c2ccc(OC(F)(F)F)cc2)n(-c2cccc(C(=O)NCCCCn3nccn3)c2)n1	5140 nM	3.87 µM	
CCc1nc(-c2ccc(OC)cc2)n(-c2cccc(C(=O)NCCCCn3cc(Br)cn3)c2)n1	4460 nM	4.38 µM	
COc1cc(N)c(Cl)cc1C(=O)NC1CCN(CCCOc2ccc(F)cc2)CC1OC (stereo not drawn) [CISAPRIDE]			inhibition at 3 µM (hERG (KCNH2)): 107%
CCc1nc(-c2ccc(OC)cc2)n(-c2cccc(C(=O)NCCCCN3CCCCC3)c2)n1	> 10000 nM	> 10 µM	
CCc1nc(-c2ccc(OC)cc2)n(-c2cccc(C(=O)NCCCn3nccn3)c2)n1	> 10000 nM	> 10 µM	
CCc1nc(-c2ccc(Cl)cc2)n(-c2cccc(C(=O)NCCCCn3nccn3)c2)n1	330 nM	0.73 µM	
CCc1nc(-c2ccc(Br)cc2)n(-c2cccc(C(=O)NCCCCn3nccn3)c2)n1	> 10000 nM	11.1 µM	
CCc1nc(-c2ncc(OC)cn2)n(-c2cccc(C(=O)NCCCCc3ccccc3)c2)n1	410 nM	0.25 µM	inhibition in vivo at 30 mg/kg/day (MKN-45 [6]): 52.2%; solubility [1]: < 1.6 µM; solubility [3]: 1.7 µM (≈ 0.776 µg/mL); solubility [4]: < 1.6 µM
CCc1nc(-c2ccc(OC)cc2)n(-c2cccc(C(=O)NCCCCn3cc(F)cn3)c2)n1	5910 nM	10.8 µM	
CCc1nc(-c2ccc(C)cc2)n(-c2cccc(C(=O)NCCCCn3nccn3)c2)n1	300 nM	0.6 µM	
CCc1nc(-c2ccc(OC)cc2)n(-c2cccc(C(=O)NCCCCn3ccnc3)c2)n1	> 10000 nM	> 10 µM	
CCc1nc(-c2ccc(OC)cc2)n(-c2cccc(C(=O)NCCCCn3cnnn3)c2)n1	> 10000 nM	> 10 µM	
COc1ccccc1N1C(=O)CSC1c1cccc(C(=O)NCCCCc2ccccc2)c1 (stereo not drawn)			Kd (Myoferlin): 1330 nM
CCc1nc(-c2ccccc2OC)n(-c2cccc(C(=O)NCCCCn3nccn3)c2)n1	2580 nM	8.31 µM	
CCc1nc(-c2ccc(OC)cc2)n(-c2cccc(C(=O)NCCCCc3ccncc3)c2)n1	> 10000 nM	> 10 µM	
